This note sets out measurements from patent publication US10179123B2, “2-aryl- and 2-arylalkyl-benzimidazoles as mIDH1 inhibitors” (BAYER PHARMA AKTIENGESELLSCHAFT, priority 2015, dated 2019).

Assay [1] concerns the target mutated isocitrate dehydrogenase (mIDH) protein, LN229 R132H cells (Homo sapiens (Human), UniProt O75874, R132H). Put plainly: Mutant IDH1 cellular assay (2-HG in medium of LN229 R132H cells). The class given is cell-based. Conditions: 2-HG levels in medium, 24 hours. The procedure:
Mutant IDH1 Cellular Assay
They were harvested by trypsin and seeded into 96-well plates. Cells were incubated overnight at 37° C. in 5% CO2. The next day test compounds were added to each cell well. The final concentration of DMSO was 0.1% and DMSO controls were included. The plates were then placed in an incubator for 24 hours.
2-HG was measured according to Balss et al. (Acta Neuropathol (2012) 124: 883-891). Briefly, HClO4 was added to each well and the plates were centrifuged. Aliquots are removed and incubated with hydroxyglutarate dehydrogenase (HGDH), diaphorase, NAD+, and resazurin. The conversion of resazurin to resorufin was detected by fluorescence spectroscopy at Ex 540 nm Em 600 nm. The increase in fluorescence is proportional to 2-HG production. IC50 values are determined by interpolation from plots of relative fluorescence vs inhibitor concentration.

Assay [2] deals with IDH1 R132H enzyme (Homo sapiens (Human), UniProt O75874, R132H). The assay is described as follows: Mutant IDH1 R132H biochemical assay. As to conditions: NADPH consumption, luminescent readout; 1.5 nM enzyme, 1 μM NADPH, 250 μM α-KG, 30 minutes, 32° C. Here is the method: NADPH consumption was measured by luminescent readout. […] The final DMSO concentration was 2.4%. […] Luminescence was measured on a luminescent reader (10 seconds measuring time, 1 second integration period, 30% sensitivity). The decrease in luminescence is proportional to mIDH1 activity. IC50 values are determined by interpolation from plots of relative luminescence versus inhibitor concentration.
IDH1 R132H enzyme, sequence (O75874 whole entry R132H): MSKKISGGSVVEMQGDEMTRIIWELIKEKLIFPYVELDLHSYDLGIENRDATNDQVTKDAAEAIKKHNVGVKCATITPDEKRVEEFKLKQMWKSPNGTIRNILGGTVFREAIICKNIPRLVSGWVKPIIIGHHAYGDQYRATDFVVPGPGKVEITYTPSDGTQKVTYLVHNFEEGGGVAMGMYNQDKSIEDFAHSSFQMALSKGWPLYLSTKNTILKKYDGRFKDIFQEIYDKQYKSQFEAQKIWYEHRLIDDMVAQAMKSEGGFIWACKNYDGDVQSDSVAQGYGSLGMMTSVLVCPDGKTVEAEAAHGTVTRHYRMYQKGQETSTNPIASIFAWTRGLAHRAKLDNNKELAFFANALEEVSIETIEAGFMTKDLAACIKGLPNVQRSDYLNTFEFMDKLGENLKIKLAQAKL

mutated isocitrate dehydrogenase (mIDH) protein, LN229 R132H cells, sequence (O75874 whole entry R132H): as above

Consider `COc1cc2c(cc1C(=O)O)nc(Cc1ccc(OC(F)(F)F)cc1)n2[C@H]1C[C@@H](C)CC(C)(C)C1` (stereo in doubt) [Example 2-45-2], for which the half-maximal inhibitory concentration (IC50) in assay [1] came to 120 nM; in assay [2], 20 nM.
The corresponding values for `CC(C)Oc1cc2c(cc1C(=O)O)nc(Cc1ccc(OC(F)(F)F)cc1)n2[C@@H]1C[C@H](C)CC(C)(C)C1` (stereo in doubt) [Example 2-46-1] are 600 nM and 120 nM.
The corresponding values for `CC(C)Oc1cc2c(cc1C(=O)O)nc(Cc1ccc(OC(F)(F)F)cc1)n2[C@@H]1C[C@H](C)CC(C)(C)C1` (stereo in doubt) [Example 2-46] are 1500 nM and 330 nM.
Take `Cc1cc2c(cc1CCC(=O)O)nc(Cc1ccc(OC(F)(F)F)cc1)n2[C@@H]1C[C@H](C)CC(C)(C)C1` (stereo in doubt) [Example 2-49]: the 50% inhibitory concentration (IC50) worked out at 280 nM in assay [1] and 80 nM in assay [2].
The matching figures for `COc1cc2c(cc1CCC(=O)O)nc(Cc1ccc(OC(F)(F)F)cc1)n2[C@H]1C[C@@H](C)CC(C)(C)C1` (stereo in doubt) [Example 2-50-2]: 380 nM and 20 nM.
Turning to `CC1(C)CC(n2c(Cc3ccc(OC(F)(F)F)cc3)nc3c(F)c(C(=O)O)ccc32)CC(C)(C)C1` [Example 2-48], the IC50 in assay [1] amounted to 800 nM; in assay [2] it was 80 nM.
The matching figures for `CC1(C)CC(n2c(Cc3ccc(OC(F)(F)F)cc3)nc3c(F)c(CCC(=O)O)ccc32)CC(C)(C)C1` [Example 2-52, 3-{4-fluoro-1-(3,3,5,5-tetramethylcyclohexyl)-2-[4-(trifluoromethoxy)benzyl]-1H-benzimidazol-5-yl}Propanoic Acid]: 1800 nM and 80 nM.

Broadly, the IC50 is the concentration at which inhibition is half-maximal.
